Assays:
[1] = tested on: Rattus norvegicus; test: Tested for the change in systolic blood pressure administered at 8 ug/kg intravenously in anesthetized rats; assay type: functional, Artery
[2] = tested on: Rattus norvegicus; test: Tested for change in heart rate administered at 8 uM/kg iv in anesthetized rats; assay type: functional
[3] = tested on: Rattus norvegicus; test: Tested for the change in diastolic blood pressure administered at 8 ug/kg intravenously in anesthetized rats; assay type: functional, Artery
[4] = tested on: Rattus norvegicus; test: Maximum rate of rise of the left ventricular isovolumetric pressure administered at 8 uM/kg iv in anesthetized rats; assay type: functional, Heart left ventricle
[5] = tested on: Rattus norvegicus; test: Tested for the change in systolic blood pressure administered at 12 ug/kg intravenously in anesthetized rats; assay type: functional, Artery
[6] = tested on: Rattus norvegicus; test: Tested for the change in diastolic blood pressure administered at 12 ug/kg intravenously in anesthetized rats; assay type: functional, Artery
[7] = tested on: Rattus norvegicus; test: Maximum rate of rise of the left ventricular isovolumetric pressure administered at 12 uM/kg iv in anesthetized rats; assay type: functional, Heart left ventricle
[8] = tested on: Rattus norvegicus; test: Tested for change in heart rate administered at 12 uM/kg iv in anesthetized rats; assay type: functional
[9] = tested on: Rattus norvegicus; test: Tested for the change in systolic blood pressure administered at 25 ug/kg intravenously in anesthetized rats; assay type: functional, Artery
[10] = tested on: Rattus norvegicus; test: Maximum rate of rise of the left ventricular isovolumetric pressure administered at 25 uM/kg iv in anesthetized rats; assay type: functional, Heart left ventricle
[11] = tested on: Rattus norvegicus; test: Tested for change in heart rate administered at 25 uM/kg iv in anesthetized rats; assay type: functional
[12] = tested on: Rattus norvegicus; test: Tested for the change in diastolic blood pressure administered at 25 ug/kg intravenously in anesthetized rats; assay type: functional, Artery
[13] = tested on: Rattus norvegicus; test: Tested for the change in systolic blood pressure administered at 5 ug/kg intravenously in anesthetized rats; assay type: functional, Artery
[14] = tested on: Rattus norvegicus; test: Maximum rate of rise of the left ventricular isovolumetric pressure administered at 5 uM/kg iv in anesthetized rats; assay type: functional, Heart left ventricle
[15] = tested on: Rattus norvegicus; test: Tested for the change in diastolic blood pressure administered at 5 ug/kg intravenously in anesthetized rats; assay type: functional, Artery
[16] = tested on: Rattus norvegicus; test: Tested for change in heart rate administered at 5 uM/kg iv in anesthetized rats; assay type: functional

COC(=O)[C@H]1[C@H]2C[C@@H]3c4[nH]c5cc(OC)ccc5c4CCN3C[C@H]2C[C@@H](OC(=O)c2cc(OC)c(OC)c(OC)c2)[C@@H]1OC [RESERPINE]
Blood pressure [1]: -31 mmHg
Heart rate [2]: -47 beats min-1
Blood pressure [3]: -24 mmHg
dp/dt [4]: -1580 mmHg s-1

C[N+](C)(C)CCCCCC[N+](C)(C)C.[Cl-].[Cl-] [HEXAMETHONIUM CHLORIDE]
Blood pressure [5]: -44 mmHg
Blood pressure [6]: -34 mmHg
dp/dt [7]: -4040 mmHg s-1
Heart rate [8]: -48 beats min-1

N=C(N)NCCN1CCCCCCC1 [GUANETHIDINE]
Blood pressure [9]: -27 mmHg
dp/dt [10]: -863 mmHg s-1
Heart rate [11]: -18 beats min-1
Blood pressure [12]: -19 mmHg

COc1ccc(Cc2nccc3cc(OC)c(OC)cc23)cc1OC [PAPAVERINE]
Blood pressure [13]: -23 mmHg
dp/dt [14]: -604 mmHg s-1
Blood pressure [15]: -18 mmHg
Heart rate [16]: -21 beats min-1
